Experimental findings from ChEMBL document CHEMBL5038670, “Design, Synthesis, and Biological Evaluation of Apcin-Based CDC20 Inhibitors” (ACS Med Chem Lett, 2022) are described below.

In assay [1] the test system is MDA-MB-468. The assay is described as follows: Cytotoxicity against human TNBC MDA-MB-468 cells assessed as cell viability at 300 uM measured after 72 hrs relative to control. In kind it is functional. To be noted: for viability at 300 µM: read-out: Activity.
For assay [2], the system named is MDA-MB-231. The assay is described as follows: Cytotoxicity against human TNBC MDA-MB-231 cells assessed as cell viability at 300 uM measured after 72 hrs relative to control. The class given is functional. To be noted: for viability at 300 µM: read-out: Activity.
Assay [3] has as its system MDA-MB-468. In words: Antitumor activity against human MDA-MB-468 cells assessed as induction of cell death at 30 uM measured after 24 hour relative to control. In kind it is functional, cell-based.
For assay [4], the system named is MDA-MB-468. In words: Downregulation of se-curin level in human TNBC MDA-MB-468 cells at 30 uM measured after 24 hrs by western blot analysis relative to control. The class given is functional, cell-based. (In general: A western blot detects proteins with antibodies after separation by electrophoresis.)
Assay [5] concerns MDA-MB-468. In words: Cytotoxicity against human TNBC MDA-MB-468 cells assessed as cell viability measured after 72 hrs. The class given is functional, cell-based. To be noted: MDA-MB-468, 72 h.
The subject of assay [6] is MDA-MB-468. The assay is described as follows: Effect on BimL expression in human TNBC MDA-MB-468 cells at 10 to 30 uM measured after 24 hrs by western blot analysis relative to control. To be noted: dose 10-30 µM. The class given is functional, cell-based.
Assay [7] deals with MDA-MB-468. In words: Upregulation of cyclin B1 level in human TNBC MDA-MB-468 cells at 10 uM measured after 24 hrs by western blot analysis relative to control. The class given is functional, cell-based.
The subject of assay [8] is MDA-MB-468. In words: Downregulation of se-curin level in human TNBC MDA-MB-468 cells at 10 uM measured after 24 hrs by western blot analysis relative to control. The class given is functional, cell-based.
In assay [9] the test system is MDA-MB-468. In words: Effect on BimEL expression in human TNBC MDA-MB-468 cells at 10 to 30 uM measured after 24 hrs by western blot analysis relative to control. In kind it is functional, cell-based. The note with it: dose 10-30 µM.
In assay [10] the test system is MDA-MB-468. The assay is described as follows: Effect on BimS expression in human TNBC MDA-MB-468 cells at 10 to 30 uM measured after 24 hrs by western blot analysis relative to control. The note with it: dose 10-30 µM. The class given is functional, cell-based.
Assay [11] has as its system MDA-MB-468. The assay is described as follows: Downregulation of CDC20 level in human TNBC MDA-MB-468 cells at 30 uM measured after 24 hrs by western blot analysis relative to control. The class given is functional, cell-based.
Assay [12] deals with MDA-MB-468. The assay is described as follows: Downregulation of CDC20 level in human TNBC MDA-MB-468 cells at 10 uM measured after 24 hrs by western blot analysis relative to control. In kind it is functional, cell-based.
Assay [13] deals with MDA-MB-231. In words: Cytotoxicity against human TNBC MDA-MB-231 cells assessed as cell viability measured after 72 hrs. The note with it: MDA-MB-231, 72 h. The class given is functional, cell-based.
For assay [14], the system named is MDA-MB-468. In words: Downregulation of cyclin B1 level in human TNBC MDA-MB-468 cells at 30 uM measured after 24 hrs by western blot analysis relative to control. The class given is functional, cell-based.
Assay [15] is filed under the species Sus scrofa. In words: Inhibition of porcine brain tubulin polymerization at 10 uM measured for 60 mins by spectrophotometric method relative to control.
For assay [16], the system named is MDA-MB-468. The assay is described as follows: Upregulation of cyclin B1 level in human TNBC MDA-MB-468 cells at 80 uM measured after 24 hrs by western blot analysis relative to control. In kind it is functional, cell-based.
For assay [17], the species on record is Sus scrofa. The assay is described as follows: Induction of porcine brain tubulin polymerization at 10 uM measured for 60 mins by spectrophotometric method relative to control. In kind it is tissue-based.

As usually defined, the IC50 is the concentration at which inhibition is half-maximal.

Calls of active or inactive are those of the source. The rule behind the calls is not given here. Some results are limits rather than exact numbers.

As for `Cc1ncc([N+](=O)[O-])n1CCOC(=O)NC(N1CCOCC1)C(F)(F)Cl` (stereo unspecified), the outcome with MDA-MB-468 [1] and in the assay on MDA-MB-231 [2] was inactive.
With `Cc1sc(NC(NC(=O)OCCn2c([N+](=O)[O-])cnc2C)C(F)(Cl)Cl)nc1-c1ccc(OC(F)(F)F)cc1` (stereo unspecified), the result in the assay on MDA-MB-468 [3], in the assay on MDA-MB-468 [4], in the assay on MDA-MB-468 [7], with MDA-MB-468 [8], in the assay on MDA-MB-468 [11] and with MDA-MB-468 [14] was Active. Also, the IC50 worked out at 13.2 µM in the assay with MDA-MB-468 [5] and 10.8 µM with MDA-MB-231 [13]. For the same compound, the Activity entry with MDA-MB-468 [6], in the assay with MDA-MB-468 [9] and with MDA-MB-468 [10] was “Dose-Dependent Effect” throughout. Also, in the assay on MDA-MB-468 [12], the result was inactive.
With `COc1ccc(-c2csc(NC(NC(=O)OCCN3CCOCC3)C(F)(F)Cl)n2)cc1` (stereo unspecified), the IC50 came out at 47.5 µM with MDA-MB-468 [5] and 52.6 µM in the assay on MDA-MB-231 [13].
In the case of `Cc1ncc([N+](=O)[O-])n1CCOC(=O)NC(Nc1c(Cl)nc(N)nc1Cl)C(F)(F)Cl` (stereo unspecified), the viability at 300 µM in the assay on MDA-MB-468 [1] was 52%. For the same compound, in the assay on MDA-MB-231 [2], the result was inactive.
As for `CC(=O)Nc1ccc(-c2csc(NC(NC(=O)OCCn3c([N+](=O)[O-])cnc3C)C(F)(F)Cl)n2)cc1` (stereo unspecified), the IC50 is 66.5 µM in the assay on MDA-MB-468 [5] and 75.7 µM with MDA-MB-231 [13].
In the case of `Cc1ncc([N+](=O)[O-])n1CCOC(=O)NC(Nc1ncc(C#N)cn1)C(F)(F)Cl` (stereo unspecified), the outcome in the assay on MDA-MB-468 [1] was inactive.
Turning to `COc1ccc(-c2csc(NC(NC(=O)OCCn3c([N+](=O)[O-])cnc3C)C(F)(F)Cl)n2)cc1` (stereo unspecified), the IC50 is 49.2 µM in the assay with MDA-MB-468 [5] and 63.1 µM in the assay on MDA-MB-231 [13].
As for `Cc1ncc([N+](=O)[O-])n1CCOC(=O)NC(Nc1nc(-c2ccc(S(C)(=O)=O)cc2)cs1)C(F)(F)Cl` (stereo unspecified), the IC50 in the assay with MDA-MB-468 [5] is 103 µM; in the assay on MDA-MB-231 [13] it was above 300 µM.
`COC(=O)c1ccc(-c2csc(NC(NC(=O)OCCn3c([N+](=O)[O-])cnc3C)C(F)(F)Cl)n2)cc1` (stereo unspecified): the results for the IC50 with MDA-MB-468 [5] and in the assay with MDA-MB-231 [13] were 18.7 µM and 34.5 µM, respectively.
Consider `COC(=O)c1sc(NC(NC(=O)OCCn2c([N+](=O)[O-])cnc2C)C(F)(F)Cl)nc1-c1ccccc1` (stereo unspecified), for which the IC50 stood at 23.5 µM with MDA-MB-468 [5] and 42.1 µM in the assay on MDA-MB-231 [13].
For the compound `Cc1ncc([N+](=O)[O-])n1CCOC(=O)NC(Nc1nc(-c2ccc(C#N)c(F)c2)cs1)C(F)(F)Cl` (stereo unspecified), the IC50 came to 14.4 µM with MDA-MB-468 [5] and 24.1 µM with MDA-MB-231 [13]. The inhibition entry in the assay filed under Sus scrofa [15] was “inactive”.
In the case of `COc1ccc(-c2csc(NC(NC(=O)OCCn3c([N+](=O)[O-])cnc3C)C(F)(F)Cl)n2)cc1O` (stereo unspecified), the IC50 turned out to be 82.5 µM in the assay with MDA-MB-468 [5] and 224 µM with MDA-MB-231 [13].
On to `Cc1ncc([N+](=O)[O-])n1CCOC(=O)NC(Nc1nc2ccc(S(C)(=O)=O)cc2s1)C(F)(F)Cl` (stereo unspecified), for which the IC50 in the assay with MDA-MB-468 [5] is above 300 µM; with MDA-MB-231 [13], 230 µM.
On to `Cc1ncc([N+](=O)[O-])n1CCOC(=O)NC(Nc1ncccn1)C(Cl)(Cl)Cl` (stereo unspecified), for which the IC50 in the assay with MDA-MB-468 [5] was determined as 53.5 µM; in the assay on MDA-MB-231 [13], 91.4 µM. Moreover, the outcome with MDA-MB-468 [16] was Active.
For the compound `Cc1ncc([N+](=O)[O-])n1CCOC(=O)NC(Nc1nc2ccc([N+](=O)[O-])cc2s1)C(F)(F)Cl` (stereo unspecified), the results for the IC50 in the assay on MDA-MB-468 [5] and in the assay with MDA-MB-231 [13] were 40.1 µM and 37.8 µM, respectively.
Turning to `CC(=O)O[C@H]1C(=O)[C@@]2(C)[C@H]([C@H](OC(=O)c3ccccc3)[C@]3(O)C[C@H](OC(=O)[C@H](O)[C@@H](NC(=O)c4ccccc4)c4ccccc4)C(C)=C1C3(C)C)[C@]1(OC(C)=O)CO[C@@H]1C[C@@H]2O`, in the assay filed under Sus scrofa [17], the inhibition result was “Active”.
Take `Cc1ncc([N+](=O)[O-])n1CCOC(=O)NC(Nc1nc(-c2ccc(OC(F)(F)F)cc2)cs1)C(F)(F)Cl` (stereo unspecified): the IC50 in the assay on MDA-MB-468 [5] is 23.3 µM; with MDA-MB-231 [13], 12 µM.
Consider `Cc1sc(NC(NC(=O)OCCn2c([N+](=O)[O-])cnc2C)C(F)(F)Cl)nc1-c1ccc(Cl)cc1` (stereo unspecified), for which the IC50 is 10.1 µM with MDA-MB-468 [5] and 12.6 µM in the assay on MDA-MB-231 [13]. In addition, the inhibition entry in the assay filed under Sus scrofa [15] was “inactive”.
`Cc1ncc([N+](=O)[O-])n1CCOC(=O)NC(Nc1nc2ccc(C#N)cc2s1)C(F)(F)Cl` (stereo unspecified): the IC50 worked out at 116 µM with MDA-MB-468 [5] and 80.8 µM with MDA-MB-231 [13].
The corresponding values for `Cc1ncc([N+](=O)[O-])n1CCOC(=O)NC(Nc1nc2ccc(F)cc2s1)C(F)(F)Cl` (stereo unspecified) are 73.7 µM and 80.7 µM.
Consider `Cc1ncc([N+](=O)[O-])n1CCOC(=O)NC(Nc1nc(-c2ccc(Cl)cc2Cl)cs1)C(F)(F)Cl` (stereo unspecified), for which the IC50 in the assay with MDA-MB-468 [5] is 14.4 µM; with MDA-MB-231 [13], 21.4 µM.
The corresponding values for `Cc1sc(NC(NC(=O)OCCN2CCOCC2)C(F)(F)Cl)nc1-c1ccc(OC(F)(F)F)cc1` (stereo unspecified) are 32.6 µM and 14.2 µM.
Regarding `Cc1ncc([N+](=O)[O-])n1CCOC(=O)NC(Nc1nc2c(F)cc(F)cc2s1)C(F)(F)Cl` (stereo unspecified), the IC50 with MDA-MB-468 [5] amounted to 101 µM; in the assay with MDA-MB-231 [13], 106 µM.
As for `Cc1ncc([N+](=O)[O-])n1CCOC(=O)NC(Nc1nc2ccccc2[nH]1)C(F)(F)Cl` (stereo unspecified), the viability at 300 µM worked out at 47% in the assay on MDA-MB-468 [1] and 70% in the assay with MDA-MB-231 [2].
On to `COc1ccc(-c2csc(NC(NC(=O)OCCn3c([N+](=O)[O-])cnc3C)C(F)(Cl)Cl)n2)cc1` (stereo unspecified), for which the IC50 was 39.3 µM in the assay with MDA-MB-468 [5] and 63.5 µM with MDA-MB-231 [13].
For the compound `Cc1ncc([N+](=O)[O-])n1CCOC(=O)NC(Nc1nc2ccc(OC(F)(F)F)cc2s1)C(F)(F)Cl` (stereo unspecified), the IC50 with MDA-MB-468 [5] is 11.2 µM; with MDA-MB-231 [13], 21.2 µM. The inhibition entry in the assay filed under Sus scrofa [15] is “inactive”.
On to `Cc1ncc([N+](=O)[O-])n1CCOC(=O)NC(Nc1nc2ccccc2s1)C(F)(F)Cl` (stereo unspecified), for which the figures for the viability at 300 µM with MDA-MB-468 [1] and with MDA-MB-231 [2] were 21% and 66%, respectively.
Turning to `Cc1ncc([N+](=O)[O-])n1CCOC(=O)NC(Nc1nc2ccc(Cl)cc2s1)C(F)(F)Cl` (stereo unspecified), the values for the IC50 with MDA-MB-468 [5] and in the assay on MDA-MB-231 [13] were 42.2 µM and 44.5 µM, respectively.
As to `Cc1ncc([N+](=O)[O-])n1CCOC(=O)NC(Nc1ncccn1)C(F)(F)Cl` (stereo unspecified), the viability at 300 µM is 40% in the assay on MDA-MB-468 [1] and 52% with MDA-MB-231 [2].
`Cc1sc(NC(NC(=O)OCCn2c([N+](=O)[O-])cnc2C)C(F)(F)Cl)nc1-c1ccc(OC(F)(F)F)cc1` (stereo unspecified): the result with MDA-MB-468 [3], in the assay on MDA-MB-468 [4], with MDA-MB-468 [11], in the assay on MDA-MB-468 [12] and in the assay on MDA-MB-468 [14] was Active. In addition, the IC50 was determined as 11.4 µM with MDA-MB-468 [5] and 12 µM with MDA-MB-231 [13]. Besides, the inhibition result in the assay listed under Sus scrofa [15] is “inactive”. The Activity entry with MDA-MB-468 [6], in the assay with MDA-MB-468 [9] and with MDA-MB-468 [10] was “Dose-Dependent Effect” throughout.
